In brackets after ≈: the same amount, converted by molar mass. Entries after “also recorded” stand apart in the source; their conditions may differ. Read-outs that look alike come from different tables or passages of the source. Marks after values point to notes of the source that are not given here.
Assays:
L. monocytogenes Scott A = assay: Minimal inhibitory concentration (MIC) and minimal bactericidal concentration (MBC), 96-well plate broth assay; type: cell-based, Listeria monocytogenes; details: for MBC: value in brackets
Experimental: All synthesized derivatives were stored in dry form at -20 °C and dissolved in DMSO at a final concentration of 4.096 mg/mL prior to their use in the MIC and MBC determination. Briefly, L. monocytogenes was cultivated in Brain […] Infusion (BHI) broth (Sigma, Italy) at 37 °C for 24 h under a shaking condition (200 rpm). After the growth, the cells were diluted in BHI to 0.2 OD 600 nm and then used for the 96-well plate inoculum. The concentrations tested ranged from 1 up to 512 μg/mL. The assay was carried out in triplicate in a 96-well plate, according to Mattio et al., 2019 [4].

WS1 fibroblast cells = assay: Cytotoxicity, growth inhibition assay (MTS) on normal skin fibroblasts; type: cell-based, human; details: for IC50: WS1 cells, 48 h exposure, MTS assay, mean ± SD of three independent experiments; for Selectivity: concentration with cytotoxic effects on WS1 relative to MIC against L. monocytogenes: WS1 IC50 (µM) compared with MIC (µM) on L. monocytogenes Scott A
Experimental: (§1) The normal human skin WS1 fibroblast cells (ATCC CRL-1502) were cultured in Eagle’s Minimum Essential Medium plus 10% fetal bovine serum at 37 °C and 5% CO2. Cytotoxic potency was assessed by a growth inhibition assay (CellTiter 96® AQueous One Solution Cell Proliferation Assay MTS, Promega). The cells were seeded in a 96-well plate, and 24 h later were exposed to the compounds (concentration range 1−200 μM). After 48 h of exposure, 20 μL of 3-(4,5-dimethylthiazol-2-yl)-5-(3-carboxymethoxyphenyl)-2-(4-sulfophenyl)-2H-tetrazolium salt was added to each well. The absorbance was measured using a FLUOstar OPTIMA plate reader (BMG Labtech GmbH, Offenburg, Germany) at 492 nm after 4 h of incubation at 37 °C in 5% CO2. The IC50 was defined as the drug concentration causing 50% cell growth inhibition, determined by the dose−response curves. Experiments were performed in triplicate.

[1] = tested on: L. monocytogenes LMG 16,779; design: method as in PMID 26867522; details: cited from earlier work
[2] = Cytotoxicity, growth inhibition assay (MTS) on normal skin fibroblasts; type: cell-based, human; details: human, WS1 normal skin fibroblast cells; WS1 IC50 (µM) compared with MIC (µM) on L. monocytogenes Scott A; read-out: Selectivity: concentration with cytotoxic effects on WS1 relative to MIC against L. monocytogenes
Experimental: as §1

[3] = Listeria monocytogenes, 24 h, BHI broth, tested 1 up to 512 µg/mL, triplicate, read-out: MIC
[4] = Listeria monocytogenes, BHI broth, tested 1 up to 512 µg/mL, triplicate, read-out: MIC
[5] = Listeria monocytogenes, MIC as µM concentration, read-out: MIC
[6] = Listeria monocytogenes, tested 1 up to 512 µg/mL, triplicate, read-out: MBC
[7] = tested 1 up to 512 µg/mL, triplicate
[8] = BHI broth, tested 1 up to 512 µg/mL, triplicate
[9] = MIC as µM concentration, read-out: MIC

| SMILES | MIC (L. monocytogenes Scott A; [3]) [µg/mL] | MIC (L. monocytogenes Scott A; [4]) [µg/mL] | MIC (L. monocytogenes Scott A; [5]) [µM] | MBC (L. monocytogenes Scott A; [6]) [µg/mL] | IC50 (WS1 fibroblast cells; Homo sapiens, WS1, 48 h) [µM] | Antimicrobial activity, result in words (L. monocytogenes Scott A) | Selectivity: concentration with cytotoxic effects on WS1 relative to MIC against L. monocytogenes (WS1 fibroblast cells) | MIC ([1]; MIC as µM concentration) [µM] | MIC [1] | MBC (L. monocytogenes Scott A; [7]) | selectivity ratio at 48 h [2] | MIC (L. monocytogenes Scott A; [8]) [µg/mL] | MIC (L. monocytogenes Scott A; [9]) [µM] | IC50 (WS1 fibroblast cells) [µM] |
| --- | --- | --- | --- | --- | --- | --- | --- | --- | --- | --- | --- | --- | --- | --- |
| Oc1ccc(-c2oc3cc(O)ccc3c2-c2cc(O)cc(O)c2)cc1 [Compound 6] | 64 | 64 | 191 | > 512 | 98.5 ± 2 | – | – | – | – | – | – | – | – | – |
| COc1ccc(-c2oc3cc(OC)ccc3c2-c2cc(OC)cc(OC)c2)cc1 [Compound 11] | – | > 256 | 656 | > 256 | > 100 | inactive | – | – | – | – | – | – | – | – |
| Oc1ccc(-c2cc3cc(/C=C/c4cc(O)cc(O)c4)ccc3o2)cc1 [Compound 4] | 256 | 256 | 743 | > 512 | 97.8 ± 3 | completely inactive | – | – | – | – | – | – | – | – |
| Oc1ccc(-c2oc3ccccc3c2-c2cc(O)cc(O)c2)cc1 [Compound 3] | 16 | 16 | 50.3 | 64 (≈ 201 µM) | 98.7 ± 1.8 | – | two-fold higher; also recorded: at least two-times higher | – | – | – | – | – | – | – |
| Oc1ccc(/C=C/c2cc(O)cc(O)c2)cc1 [resveratrol] | – | – | – | – | > 200 | – | – | 876 (≈ 200 µg/mL) | 200 (-) ^c µg/mL | – | – | – | – | – |
| Oc1ccc(/C=C/c2cc(O)cc3oc(-c4ccc(O)cc4)c(-c4cc(O)cc(O)c4)c23)cc1 [Compound 2, viniferifuran] | 16 | 16 | 35.4 | > 512 | 33 ± 1.4 | – | – | – | – | – | – | – | – | – |
| COc1cc(/C=C/c2ccc3oc(-c4ccc(O)cc4)cc3c2)cc(OC)c1 [Compound 9] | > 512 | > 512 | 1370 | > 512 | 95 ± 2.3 | inactive | – | – | – | >512 (>512) µg/mL | – | – | – | – |
| [H]/N=C(\N/C(=N/[H])NCCCCCCNC(=N)NC(=N)Nc1ccc(Cl)cc1)Nc1ccc(Cl)cc1 [Chlorhexidine, reference compound] | – | 8 | 15.8 | 32 (≈ 63.3 µM) | – | – | – | – | – | – | – | – | – | – |
| Oc1ccc(-c2oc3ccc(/C=C/c4cc(O)cc(O)c4)cc3c2-c2cc(O)cc(O)c2)cc1 [Compound 1, dehydro-δ-viniferin] | 2 | 2 | 4.42 | 16 (≈ 35.4 µM) | 37 ± 1.4 | – | – | – | – | – | ~10 | – | – | – |
| Oc1cc(O)cc(/C=C/c2ccc3occ(-c4cc(O)cc(O)c4)c3c2)c1 [Compound 5] | – | 16 | 44.4 | 64 (≈ 178 µM) | 96.8 ± 4.5 | – | two-fold higher; also recorded: at least two-times higher | – | – | – | – | – | – | – |
| COc1cc(/C=C/c2ccc(O)cc2)cc(OC)c1 [pterostilbene, reference compound] | 64 | 64 | 250 | 128 (≈ 499 µM) | 57 ± 10 | – | – | – | – | – | – | – | – | – |
| COc1ccc(-c2cc3cc(/C=C/c4cc(OC)cc(OC)c4)ccc3o2)cc1 [Compound 10] | – | > 256 | 662 | > 256 | > 100 | inactive | – | – | – | – | – | – | – | – |
| Oc1ccc(/C=C/c2cc(O)cc3occ(-c4cc(O)cc(O)c4)c23)cc1 [Compound 8] | – | – | – | – | – | – | – | – | – | > 512 µg/mL | – | 64 | 178 | 85 ± 4.6 |
| Oc1ccc(/C=C/c2cc(O)cc3occ(-c4cc(O)cc(O)c4)c23)cc1 [Compound 7] | – | – | – | – | 45 ± 1.2 | – | two-fold higher; also recorded: at least two-times higher | – | – | 64 µg/mL (≈ 178 µM) | – | 8 | 23.2 | – |
